# Measurements reported in patent US20140329797A1, “SUBSTITUTED OXADIAZOLYL PYRIDINONES AND OXADIAZOLYL PYRIDAZINONES AS HIF INHIBITORS” (Bayer Intellectual Property GmbH, priority 2011, published 2014).
# System: HCT 116 cells transfected with a luciferase reporter under the control of an HIF-responsive sequence
# Test: HIF-luciferase assay
# Assay type: cell-based
# Settings: Homo sapiens; HCT 116 HIF-luciferase reporter cells, hypoxia chamber (1% O2), 24 h; in some cases means of up to four individual determinations
# Procedure: B-1. HIF-Luciferase Assay
# HCT 116 cells were transfected in a stable manner with a plasmid which contained a luciferase reporter under the control of an HIF-responsive sequence. These cells were sown in microtitre plates [20000 cells/cavity in RPMI 1640 medium with 10% foetal calf serum (FCS) and 100 μg/ml of hygromycin]. Incubation was carried out overnight under standard conditions (5% CO2, 21% O2, 37° C., moistened). The following morning the cells were incubated with various concentrations of the test substances (0-10 μmol/l) in a hypoxia chamber (1% O2). After 24 h, Bright Glo reagent (Promega, Wisconsin, USA) was added in accordance with the manufacturer's instructions, and after 5 min the luminescence was measured. Cells which were incubated under normoxia served as background controls.
row,SMILES,IC50 [nM]
1,"Cc1ccc(Cn2nc(-c3nc(-c4ccc(OC(F)(F)F)cc4)no3)ccc2=O)cc1 [Example 65, 2-(4-Methylbenzyl)-6-{3-[4-(trifluoromethoxy)phenyl]-1,2,4-oxadiazol-5-yl}pyridazin-3(2H)-one]",200
2,"O=C(c1cccc(Cn2nc(-c3nc(-c4ccc(OC(F)(F)F)cc4)no3)ccc2=O)c1)N1CCCO1 [Example 80, 2-[3-(1,2-Oxazolidin-2-ylcarbonyl)benzyl]-6-{3-[4-(trifluoromethoxy)phenyl]-1,2,4-oxadiazol-5-yl}pyridazin-3(2H)-one]",5
3,"O=c1ccc(-c2nc(-c3ccc(SC(F)(F)F)cc3)no2)cn1Cc1cccc(N2CC(O)C2)c1 [Example 14, 1-[3-(3-Hydroxyazetidin-1-yl)benzyl]-5-(3-{4-[(trifluoromethyl)sulphanyl]phenyl}-1,2,4-oxadiazol-5-yl)pyridin-2(1H)-one]",2
4,"O=c1ccc(-c2nc(-c3ccc(OC(F)(F)F)cc3)no2)cn1Cc1ccnc(N2CCN(C3CC3)CC2)c1 [Example 51, 1-{[2-(4-Cyclopropylpiperazin-1-yl)pyridin-4-yl]methyl}-5-{3-[4-(trifluoromethoxy)phenyl]-1,2,4-oxadiazol-5-yl}pyridin-2(1H)-one]",2
5,"CNc1ccc(Cn2nc(-c3nc(-c4ccc(C(C)(C)C(F)(F)F)cc4)no3)ccc2=O)cn1 [Example 101, 2-{[6-(Methylamino)pyridin-3-yl]methyl}-6-{3-[4-(1,1,1-trifluoro-2-methylpropan-2-yl)phenyl]-1,2,4-oxadiazol-5-yl}pyridazin-3(2H)-one]",15
6,"CNC(=O)c1cccc(Cn2cc(-c3nc(-c4ccc(C(C)(C)C(F)(F)F)cc4)no3)ccc2=O)c1 [Example 21, N-Methyl-3-{[2-oxo-5-{3-[4-(1,1,1-trifluoro-2-methylpropan-2-yl)phenyl]-1,2,4-oxadiazol-5-yl}pyridin-1(2H)-yl]methyl}benzamide]",30
7,"N#CC1CCN(c2cccc(Cn3cc(-c4nc(-c5ccc(SC(F)(F)F)cc5)no4)ccc3=O)c2)CC1 [Example 10, 1-(3-{[2-oxo-5-(3-{4-[(trifluoromethyl)sulphanyl]phenyl}-1,2,4-oxadiazol-5-yl)pyridin-1(2H)-yl]methyl}phenyl)piperidine-4-carbonitrile]",1
8,"CN1CCN(c2cc(Cn3cc(-c4nc(-c5ccc(SC(F)(F)F)cc5)no4)ccc3=O)ccn2)CC1 [Example 47, 1-{[2-(4-Methylpiperazin-1-yl)pyridin-4-yl]methyl}-5-(3-{4-[(trifluoromethyl)sulphanyl]phenyl}-1,2,4-oxadiazol-5-yl)pyridin-2(1H)-one]",40
9,"CN1CCN(C(=O)c2cccc(Cn3cc(-c4nc(-c5ccc(OC(F)(F)F)cc5)no4)ccc3=O)c2)CC1 [Example 36, 1-{3-[(4-Methylpiperazin-1-yl)carbonyl]benzyl}-5-{3-[4-(trifluoromethoxy)phenyl]-1,2,4-oxadiazol-5-yl}pyridin-2(1H)-one]",5
10,"CC(C)(c1ccc(-c2noc(-c3ccc(=O)n(Cc4cccc(N5CC(O)C5)c4)c3)n2)cc1)C(F)(F)F [Example 15, 1-[3-(3-Hydroxyazetidin-1-yl)benzyl]-5-{3-[4-(1,1,1-trifluoro-2-methylpropan-2-yl)phenyl]-1,2,4-oxadiazol-5-yl}pyridin-2(1H)-one]",2
11,"O=C(c1cccc(Cn2cc(-c3nc(-c4ccc(OC(F)(F)F)cc4)no3)ccc2=O)c1)N1CCN(C2CC2)CC1 [Example 38, 1-{3-[(4-Cyclopropylpiperazin-1-yl)carbonyl]benzyl}-5-{3-[4-(trifluoromethoxy)phenyl]-1,2,4-oxadiazol-5-yl}pyridin-2(1H)-one]",3
12,"CN1CCN(C(=O)c2cccc(Cn3cc(-c4nc(-c5ccc(C(C)(C)C(F)(F)F)cc5)no4)ccc3=O)c2)CC1 [Example 37, 1-{3-[(4-Methylpiperazin-1-yl)carbonyl]benzyl}-5-{3-[4-(1,1,1-trifluoro-2-methylpropan-2-yl)phenyl]-1,2,4-oxadiazol-5-yl}pyridin-2(1H)-one]",10
13,"Cc1ccc(Cn2cc(-c3nc(-c4ccc(OC(F)(F)F)cc4)no3)ccc2=O)cc1 [Example 1, 1-(4-Methylbenzyl)-5-{3-[4-(trifluoromethoxy)phenyl]-1,2,4-oxadiazol-5-yl}pyridin-2(1H)-one]",45
14,"CC(=O)OC1(c2cccc(Cn3cc(-c4nc(-c5ccc(OC(F)(F)F)cc5)no4)ccc3=O)c2)CC1 [Example 40, 1-(3-{[2-Oxo-5-{3-[4-(trifluoromethoxy)phenyl]-1,2,4-oxadiazol-5-yl}pyridin-1(2H)-yl]methyl}phenyl)cyclopropyl acetate]",2.5
15,"O=C(c1cccc(Cn2nc(-c3nc(-c4ccc(OC(F)(F)F)cc4)no3)ccc2=O)c1)N1CCC1 [Example 74, 2-[3-(Azetidin-1-ylcarbonyl)benzyl]-6-{3-[4-(trifluoromethoxy)phenyl]-1,2,4-oxadiazol-5-yl}pyridazin-3(2H)-one]",10
16,"O=C(c1cccc(Cn2nc(-c3nc(-c4ccc(OC(F)(F)F)cc4)no3)ccc2=O)c1)N1CCN(C2CC2)CC1 [Example 87, 2-{3-[(4-Cyclopropylpiperazin-1-yl)carbonyl]benzyl}-6-{3-[4-(trifluoromethoxy)phenyl]-1,2,4-oxadiazol-5-yl}pyridazin-3(2H)-one]",5
17,"CC(C)(c1ccc(-c2noc(-c3ccc(=O)n(Cc4cccc(C(=O)N5CCC(O)CC5)c4)c3)n2)cc1)C(F)(F)F [Example 33, 1-{3-[(4-Hydroxypiperidin-1-yl)carbonyl]benzyl}-5-{3-[4-(1,1,1-trifluoro-2-methylpropan-2-yl)phenyl]-1,2,4-oxadiazol-5-yl}pyridin-2(1H)-one]",6
18,"N#CC1CCN(c2cc(Cn3cc(-c4nc(-c5ccc(OC(F)(F)F)cc5)no4)ccc3=O)ccn2)CC1 [Example 45, 1-(4-{[2-oxo-5-{3-[4-(trifluoromethoxy)phenyl]-1,2,4-oxadiazol-5-yl}pyridin-1(2H)-yl]methyl}pyridin-2-yl)piperidine-4-carbonitrile]",5

# The remaining lines, values ahead:
row,IC50 [nM],SMILES
1,3,"O=c1ccc(-c2nc(-c3ccc(OC(F)(F)F)cc3)no2)cn1Cc1ccnc(N2CCN(CC(F)(F)F)CC2)c1 [Example 49, 1-({2-[4-(2,2,2-Trifluoroethyl)piperazin-1-yl]pyridin-4-yl}methyl)-5-{3-[4-(trifluoromethoxy)phenyl]-1,2,4-oxadiazol-5-yl}pyridin-2(1H)-one]"
2,8,"CC(C)(O)Cc1cccc(Cn2cc(-c3nc(-c4ccc(C(C)(C)C(F)(F)F)cc4)no3)ccc2=O)c1 [Example 42, 1-[3-(2-Hydroxy-2-methylpropyl)benzyl]-5-{3-[4-(1,1,1-trifluoro-2-methylpropan-2-yl)phenyl]-1,2,4-oxadiazol-5-yl}pyridin-2(1H)-one]"
3,5,"O=c1ccc(-c2nc(-c3ccc(C4(C(F)(F)F)CC4)cc3)no2)cn1Cc1cccc(N2CC(O)C2)c1 [Example 16, 1-[3-(3-Hydroxyazetidin-1-yl)benzyl]-5-(3-{4-[1-(trifluoromethyl)cyclopropyl]phenyl}-1,2,4-oxadiazol-5-yl)pyridin-2(1H)-one]"
4,50,"CC(C)(c1ccc(-c2noc(-c3ccc(=O)n(Cc4ccc(Cl)cc4)c3)n2)cc1)C(F)(F)F [Example 4, 1-(4-Chlorobenzyl)-5-{3-[4-(1,1,1-trifluoro-2-methylpropan-2-yl)phenyl]-1,2,4-oxadiazol-5-yl}pyridin-2(1H)-one]"
5,40,"Cc1ccc(Cn2cc(-c3nc(-c4ccc(C(C)(C)C(F)(F)F)cc4)no3)ccc2=O)cc1 [Example 2, 1-(4-Methylbenzyl)-5-{3-[4-(1,1,1-trifluoro-2-methylpropan-2-yl)phenyl]-1,2,4-oxadiazol-5-yl}pyridin-2(1H)-one]"
6,4,"O=C(c1cccc(Cn2cc(-c3nc(-c4ccc(OC(F)(F)F)cc4)no3)ccc2=O)c1)N1CCOCC1 [Example 34, 1-[3-(Morpholin-4-ylcarbonyl)benzyl]-5-{3-[4-(trifluoromethoxy)phenyl]-1,2,4-oxadiazol-5-yl}pyridin-2(1H)-one]"
7,6,"CC(C)(O)Cc1cccc(Cn2nc(-c3nc(-c4ccc(OC(F)(F)F)cc4)no3)ccc2=O)c1 [Example 90, 2-[3-(2-Hydroxy-2-methylpropyl)benzyl]-6-{3-[4-(trifluoromethoxy)phenyl]-1,2,4-oxadiazol-5-yl}pyridazin-3(2H)-one]"
8,15,"CN(C)C(=O)c1cccc(Cn2cc(-c3nc(-c4ccc(C(C)(C)C(F)(F)F)cc4)no3)ccc2=O)c1 [Example 23, N,N-Dimethyl-3-{[2-oxo-5-{3-[4-(1,1,1-trifluoro-2-methylpropan-2-yl)phenyl]-1,2,4-oxadiazol-5-yl}pyridin-1(2H)-yl]methyl}benzamide]"
9,1.5,"N#CC1CCN(c2cccc(Cn3nc(-c4nc(-c5ccc(OC(F)(F)F)cc5)no4)ccc3=O)c2)CC1 [Example 66, 1-(3-{[6-oxo-3-{3-[4-(trifluoromethoxy)phenyl]-1,2,4-oxadiazol-5-yl}pyridazin-1(6H)-yl]methyl}phenyl)piperidine-4-carbonitrile]"
10,20,"CNc1ccc(Cn2cc(-c3nc(-c4ccc(C(C)(C)C(F)(F)F)cc4)no3)ccc2=O)cn1 [Example 60, 1-{[6-(Methylamino)pyridin-3-yl]methyl}-5-{3-[4-(1,1,1-trifluoro-2-methylpropan-2-yl)phenyl]-1,2,4-oxadiazol-5-yl}pyridin-2(1H)-one]"
11,20,"CN(C)C(=O)c1cccc(Cn2cc(-c3nc(-c4ccc(OC(F)(F)F)cc4)no3)ccc2=O)c1 [Example 22, N,N-Dimethyl-3-{[2-oxo-5-{3-[4-(trifluoromethoxy)phenyl]-1,2,4-oxadiazol-5-yl}pyridin-1(2H)-yl]methyl}benzamide]"
